Eight compounds from ChEMBL document CHEMBL1122235, “4'-Methylangelicins: new potential agents for the photochemotherapy of psoriasis” (J Med Chem, 1983) can be followed below.

A short description of series [1]: Rate constant of the photoreaction between compound and DNA. It counts as ADME.
The next series deals with Nucleic Acid. Put plainly: Association constant to an isolated site calf thymus DNA. The format is nucleic-acid assay. The note with it: Bos taurus.
In series [2] the test system is Mus musculus. The experiment in a line: In vivo inhibition of epidermal DNA synthesis in mouse after oral administration. The format is functional.
In series [3] the test system is Mus musculus. The experiment in a line: In vivo inhibition of epidermal DNA synthesis in mouse after topical application. It counts as functional.
A short description of series [4]: In vivo inhibition of epidermal DNA synthesis in mouse after topical application relative to that of 8-MOP. The format is functional.
Series [5] in a line: Frequency of binding sites i.e., number of ligands bound per nucleotide.
Series [6] can be described thus: Number of nucleotides occluded by a bound furocoumarin molecule.
A short description of series [7]: In vivo inhibition of epidermal DNA synthesis in mouse after oral administration relativ to that of 8-MOP. It counts as functional.
Series [8] in a line: Partition coefficient between octanol and water. The format is physicochemical.
Series [9] is described as follows: Solubility in water was determined. The format is physicochemical.

Converted amounts (≈) assume the structure as drawn.

In series [1], `COc1c2occc2cc2ccc(=O)oc12` [METHOXSALEN] came in with a Rate constant of 0.031 min⁻¹. Further, the Binding constant in the series on Nucleic Acid was determined as 736. Besides, the Inhibition (usually the change of the read-out against control, counted positive when it falls) with Mus musculus [2] was found to be 39.1%; in the series with Mus musculus [3] it was 61%. The Relative activity in [4] and in series [7] was 1 in each case. The compound also returned a 1/n in series [5] of 0.128. The compound also yielded a Number in series [6] of 7.81.
Regarding `O=c1ccc2ccc3occc3c2o1` [ANGELICIN], the Rate constant in [1] is 0.011 min⁻¹. The Partition coefficient in [8] was 120. The compound further gave a Solubility in [9] (buffer) of 0.000105 M l-1. Moreover, the Binding constant in the series with Nucleic Acid was found to be 560. The Inhibition in the series on Mus musculus [2] was determined as 28%; in the series on Mus musculus [3] it was 17.5%. Also, the Relative activity in series [4] was 0.28; in series [7] it was 0.71. In [5], this compound returned a 1/n of 0.063. Besides, the Number in series [6] turned out to be 15.9.
In [1], `Cc1cc(=O)oc2c1ccc1occ(C)c12` yielded a Rate constant of 0.073 min⁻¹. For the same compound, in series [8], the Partition coefficient turned out to be 1190. In addition, the Solubility was 0.000012 M l-1 in series [9] (buffer) and 2.6 µg/mL (≈ 12.1 µM) in series [9] (water, read-out: Solubility). Further, the Binding constant with Nucleic Acid is 6600. For the same compound, the Inhibition in the series on Mus musculus [2] is recorded as 25.82%; in the series with Mus musculus [3], 44.27%. Also, the results for the Relative activity in series [4] and in series [7] were 0.72 and 0.66, respectively. The compound further gave a 1/n in [5] of 0.08. The compound also displayed a Number in [6] of 12.5.
On to `Cc1cc(=O)oc2c1ccc1occc12`, for which the Rate constant in series [1] was found to be 0.016 min⁻¹.
In series [1], `Cc1cc2occ(C)c2c2oc(=O)ccc12` returned a Rate constant of 0.059 min⁻¹. In addition, the Partition coefficient in [8] is reported as 1041. The Solubility was 0.000022 M l-1 in series [9] (buffer) and 4.7 µg/mL (≈ 21.9 µM) in series [9] (water, read-out: Solubility). The Binding constant in the series on Nucleic Acid worked out at 5400. Also, the figures for the Inhibition with Mus musculus [2] and in the series with Mus musculus [3] were 53.33% and 58.41%, respectively. Besides, the results for the Relative activity in [4] and in [7] were 0.95 and 1.36, respectively. The 1/n in series [5] turned out to be 0.08. This compound also displayed a Number in series [6] of 12.5.
For `Cc1coc2ccc3ccc(=O)oc3c12`, the Rate constant in [1] was 0.037 min⁻¹. For the same compound, the Partition coefficient in [8] worked out at 240. Moreover, the Solubility in [9] (buffer) amounted to 0.00007 M l-1; in series [9] (water, read-out: Solubility) it was 14 µg/mL (≈ 69.9 µM). The Binding constant in the series on Nucleic Acid was 975. Besides, the results for the Inhibition in the series on Mus musculus [2] and with Mus musculus [3] were 36.75% and 58.43%, respectively. Further, the Relative activity worked out at 0.95 in series [4] and 0.94 in series [7]. Besides, in [5], the 1/n was 0.065. Also, the Number in series [6] came to 15.4.
The compound `Cc1cc2occc2c2oc(=O)ccc12` showed a Rate constant in series [1] of 0.034 min⁻¹.
`Cc1cc2c(ccc3ccc(=O)oc32)o1` yielded a Rate constant in series [1] of 0.021 min⁻¹.
